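Grown in 96-well plates, cells were treated for 48 hours with each compound at five concentrations. Insufficient inhibition: endpoint recorded as highest concentration tested. Definition used: TGI = concentration required for complete inhibition of growth.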
Legend:
Assay in all cases: NCI-60 cell line screen, 48 h
786-0 renal = system: 786-0 renal
A549 NSCLC = system: A549 NSCLC
ACHN renal = system: ACHN renal
BT-549 breast = system: BT-549 breast
CAKI-1 renal = system: CAKI-1 renal
CCRF-CEM leukemia = system: CCRF-CEM leukemia
COLO 205 colon = system: COLO 205 colon
DU-145 prostate = system: DU-145 prostate
EKVX NSCLC = system: EKVX NSCLC
HCC-2998 colon = system: HCC-2998 colon
HCT-116 colon = system: HCT-116 colon
HCT-15 colon = system: HCT-15 colon
HL-60(TB) leukemia = system: HL-60(TB) leukemia
HOP-62 NSCLC = system: HOP-62 NSCLC
HOP-92 NSCLC = system: HOP-92 NSCLC
HT29 colon = system: HT29 colon
IGROV1 ovarian = system: IGROV1 ovarian
K-562 leukemia = system: K-562 leukemia
KM12 colon = system: KM12 colon
LOX IMVI melanoma = system: LOX IMVI melanoma
M14 melanoma = system: M14 melanoma
MALME-3M melanoma = system: MALME-3M melanoma
MCF7 breast = system: MCF7 breast
MDA-MB-231 breast = system: MDA-MB-231 breast
MDA-MB-435 = system: MDA-MB-435
MDA-N = system: MDA-N
MOLT-4 leukemia = system: MOLT-4 leukemia
NCI-H23 lung = system: NCI-H23 lung
NCI-H460 lung = system: NCI-H460 lung
NCI/ADR-RES ovarian = system: NCI/ADR-RES ovarian
OVCAR-3 ovarian = system: OVCAR-3 ovarian
OVCAR-4 ovarian = system: OVCAR-4 ovarian
OVCAR-5 ovarian = system: OVCAR-5 ovarian
OVCAR-8 ovarian = system: OVCAR-8 ovarian
PC-3 prostate = system: PC-3 prostate
RPMI-8226 leukemia = system: RPMI-8226 leukemia
SF-295 CNS = system: SF-295 CNS
SK-MEL-2 melanoma = system: SK-MEL-2 melanoma
SK-MEL-28 melanoma = system: SK-MEL-28 melanoma
SK-MEL-5 melanoma = system: SK-MEL-5 melanoma
SN12C renal = system: SN12C renal
SR leukemia = system: SR leukemia
SW-620 colon = system: SW-620 colon
U251 CNS = system: U251 CNS
UACC-257 melanoma = system: UACC-257 melanoma
UO-31 renal = system: UO-31 renal
A498 renal = system: A498 renal
HS 578T breast = system: HS 578T breast
NCI-H226 lung = system: NCI-H226 lung
NCI-H522 lung = system: NCI-H522 lung
SF-539 CNS = system: SF-539 CNS
SK-OV-3 ovarian = system: SK-OV-3 ovarian
SNB-19 CNS = system: SNB-19 CNS
TK-10 renal = system: TK-10 renal
UACC-62 melanoma = system: UACC-62 melanoma

In the case of O=S1(=O)OCCOS(=O)(=O)C1S(=O)(=O)c1cccc2ccccc12, the TGI (786-0 renal) was > 100 µM, the TGI (A549 NSCLC) was > 100 µM and the TGI (ACHN renal) was > 100 µM. The TGI (BT-549 breast) was > 100 µM, the TGI (CAKI-1 renal) was > 100 µM and the TGI (CCRF-CEM leukemia) was > 100 µM. For the same molecule, the TGI (COLO 205 colon) was > 100 µM, the TGI (DU-145 prostate) was > 100 µM and the TGI (EKVX NSCLC) was > 100 µM. The TGI (HCC-2998 colon) was > 100 µM, the TGI (HCT-116 colon) was 57.1 µM and the TGI (HCT-15 colon) was > 100 µM. The TGI (HL-60(TB) leukemia) was > 100 µM, the TGI (HOP-62 NSCLC) was > 100 µM and the TGI (HOP-92 NSCLC) was > 100 µM. For the same molecule, the TGI (HT29 colon) was > 100 µM, the TGI (IGROV1 ovarian) was > 100 µM and the TGI (K-562 leukemia) was > 100 µM. For the same molecule, the TGI (KM12 colon) was > 100 µM, the TGI (LOX IMVI melanoma) was > 100 µM and the TGI (M14 melanoma) was > 100 µM. For the same molecule, the TGI (MALME-3M melanoma) was > 100 µM, the TGI (MCF7 breast) was > 100 µM and the TGI (MDA-MB-231 breast) was > 100 µM. For the same molecule, the TGI (MDA-MB-435) was > 100 µM, the TGI (MDA-N) was > 100 µM and the TGI (MOLT-4 leukemia) was > 100 µM. The TGI (NCI-H23 lung) was > 100 µM, the TGI (NCI-H460 lung) was > 100 µM and the TGI (NCI/ADR-RES ovarian) was > 100 µM. The TGI (OVCAR-3 ovarian) was > 100 µM, the TGI (OVCAR-4 ovarian) was > 100 µM and the TGI (OVCAR-5 ovarian) was > 100 µM. The TGI (OVCAR-8 ovarian) was > 100 µM, the TGI (PC-3 prostate) was > 100 µM and the TGI (RPMI-8226 leukemia) was > 100 µM. The TGI (SF-295 CNS) was > 100 µM, the TGI (SK-MEL-2 melanoma) was > 100 µM and the TGI (SK-MEL-28 melanoma) was > 100 µM. For the same molecule, the TGI (SK-MEL-5 melanoma) was > 100 µM, the TGI (SN12C renal) was > 100 µM and the TGI (SR leukemia) was > 100 µM. For the same molecule, the TGI (SW-620 colon) was > 100 µM, the TGI (U251 CNS) was > 100 µM and the TGI (UACC-257 melanoma) was > 100 µM. The TGI (UO-31 renal) was > 100 µM.
In the case of CCOC(=O)N1c2c(c3ccccc3n2C(=O)OCC)C(=O)C(OC)N1C(=O)OCC (stereo unspecified), the TGI (786-0 renal) was > 100 µM, the TGI (A498 renal) was 88.6 µM and the TGI (A549 NSCLC) was > 100 µM. For the same molecule, the TGI (ACHN renal) was 92.7 µM, the TGI (BT-549 breast) was > 100 µM and the TGI (CAKI-1 renal) was 93.9 µM. For the same molecule, the TGI (CCRF-CEM leukemia) was > 100 µM, the TGI (COLO 205 colon) was 28.9 µM and the TGI (DU-145 prostate) was > 100 µM. For the same molecule, the TGI (EKVX NSCLC) was > 100 µM, the TGI (HCC-2998 colon) was > 100 µM and the TGI (HCT-116 colon) was 86.9 µM. The TGI (HCT-15 colon) was 79 µM, the TGI (HL-60(TB) leukemia) was 49.8 µM and the TGI (HOP-62 NSCLC) was > 100 µM. For the same molecule, the TGI (HOP-92 NSCLC) was > 100 µM, the TGI (HS 578T breast) was 73.3 µM and the TGI (HT29 colon) was 85.5 µM. The TGI (IGROV1 ovarian) was > 100 µM, the TGI (K-562 leukemia) was > 100 µM and the TGI (KM12 colon) was 38.9 µM. For the same molecule, the TGI (LOX IMVI melanoma) was 38.8 µM, the TGI (M14 melanoma) was > 100 µM and the TGI (MALME-3M melanoma) was 69.8 µM. The TGI (MCF7 breast) was > 100 µM, the TGI (MDA-MB-231 breast) was 83.6 µM and the TGI (MDA-MB-435) was > 100 µM. The TGI (MDA-N) was > 100 µM, the TGI (MOLT-4 leukemia) was 50.8 µM and the TGI (NCI-H226 lung) was > 100 µM. For the same molecule, the TGI (NCI-H23 lung) was > 100 µM, the TGI (NCI-H460 lung) was > 100 µM and the TGI (NCI-H522 lung) was 41.2 µM. The TGI (NCI/ADR-RES ovarian) was 62.1 µM, the TGI (OVCAR-3 ovarian) was > 100 µM and the TGI (OVCAR-4 ovarian) was > 100 µM. For the same molecule, the TGI (OVCAR-5 ovarian) was > 100 µM, the TGI (OVCAR-8 ovarian) was > 100 µM and the TGI (PC-3 prostate) was 80.5 µM. The TGI (RPMI-8226 leukemia) was > 100 µM, the TGI (SF-295 CNS) was 59.4 µM and the TGI (SF-539 CNS) was 74.7 µM. The TGI (SK-MEL-2 melanoma) was 36.4 µM, the TGI (SK-MEL-28 melanoma) was 53.6 µM and the TGI (SK-MEL-5 melanoma) was 60.7 µM. The TGI (SK-OV-3 ovarian) was > 100 µM, the TGI (SN12C renal) was > 100 µM and the TGI (SNB-19 CNS) was > 100 µM. The TGI (SR leukemia) was 45.1 µM, the TGI (SW-620 colon) was > 100 µM and the TGI (TK-10 renal) was > 100 µM. The TGI (U251 CNS) was 76.5 µM, the TGI (UACC-257 melanoma) was > 100 µM and the TGI (UACC-62 melanoma) was > 100 µM. The TGI (UO-31 renal) was > 100 µM.

From PubChem BioAssay (NCI)
